ChEMBL document CHEMBL1201862, “PubChem BioAssay data set” (2004)
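Cultured in 96-well plates, cells were exposed to test compound for 48 hours across five concentrations. GI50 is the concentration that inhibits growth by half.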 Activity calls are given as the source filed them. Cut-off read from the data, not from the text of the source: active = GI50 up to about 1.1 µM and inactive = higher.

Key:
Assay in all cases: NCI anticancer screen, dose series, 48 h
ACHN = tested on: ACHN
TK-10 = tested on: TK-10
SK-OV-3 = tested on: SK-OV-3
SNB-75 = tested on: SNB-75
LOX IMVI = tested on: LOX IMVI
HT-29 = tested on: HT-29
RPMI-8226 = tested on: RPMI-8226
SNB-19 = tested on: SNB-19
MOLT-4 = tested on: MOLT-4
KM12 = tested on: KM12
HCT-116 = tested on: HCT-116
SF-295 = tested on: SF-295
SN12C = tested on: SN12C
HCT-15 = tested on: HCT-15
OVCAR-5 = tested on: OVCAR-5
OVCAR-8 = tested on: OVCAR-8
SR = tested on: SR
NCI-H23 = tested on: NCI-H23
CAKI-1 = tested on: CAKI-1

| Structure (SMILES) | GI50 (ACHN) | GI50 (TK-10) | GI50 (SK-OV-3) | GI50 (SNB-75) | GI50 (LOX IMVI) | GI50 (HT-29) | GI50 (RPMI-8226) | GI50 (SNB-19) | GI50 (MOLT-4) | GI50 (KM12) | GI50 (HCT-116) | GI50 (SF-295) | GI50 (SN12C) | GI50 (HCT-15) | GI50 (OVCAR-5) | GI50 (OVCAR-8) | GI50 (SR) | GI50 (NCI-H23) | GI50 (CAKI-1) |
| --- | --- | --- | --- | --- | --- | --- | --- | --- | --- | --- | --- | --- | --- | --- | --- | --- | --- | --- | --- |
| O=C(Nc1ccc(Cl)cc1C(=O)O)c1ccc([N+](=O)[O-])cc1 | 17.1 µM (inactive) | 31.4 µM (inactive) | 18.2 µM (inactive) | 45.4 µM (inactive) | 19.9 µM (inactive) | 18.9 µM (inactive) | 26.5 µM (inactive) | 14.5 µM (inactive) | 22.4 µM (inactive) | 18.4 µM (inactive) | 12.2 µM (inactive) | 23.7 µM (inactive) | 37.2 µM (inactive) | 16.7 µM | 22.5 µM (inactive) | 26.7 µM (inactive) |  |  |  |
| CCOC(=O)Cc1csc(Nc2ccc(OCC)cc2)n1 | > 100 µM (inactive) | > 100 µM (inactive) |  | 40.4 µM (inactive) |  | > 100 µM (inactive) | > 100 µM (inactive) | > 100 µM (inactive) | 61.8 µM (inactive) | > 100 µM (inactive) | > 100 µM (inactive) | > 100 µM (inactive) | > 100 µM (inactive) | > 100 µM |  | > 100 µM (inactive) | 73.8 µM (inactive) | 50.7 µM (inactive) |  |
| COc1ccc(C(=O)N2c3ccccc3N(C)n3cccc3C2CC(=O)O)cc1 (stereo not given) | > 100 µM (inactive) | > 100 µM (inactive) | > 100 µM (inactive) | > 100 µM (inactive) | > 100 µM (inactive) | > 100 µM (inactive) | > 100 µM (inactive) | > 100 µM (inactive) | > 100 µM (inactive) | > 100 µM (inactive) |  | > 100 µM (inactive) | > 100 µM (inactive) | > 100 µM | > 100 µM (inactive) | > 100 µM (inactive) |  | > 100 µM (inactive) | > 100 µM (inactive) |
| O=C1C2c3[nH]c4ccccc4c3[C@@H]3CCCCCCCCCCC3C2C(=O)N1c1ccccc1 (stereo not given in full) | 25.9 µM (inactive) | 20 µM (inactive) | 10.4 µM (inactive) | 3.18 µM (inactive) | 16.1 µM (inactive) | 27.6 µM (inactive) | 38.6 µM (inactive) | 12.4 µM (inactive) |  | 18.2 µM (inactive) |  | 16.3 µM (inactive) | 18.6 µM (inactive) | 38.6 µM | > 100 µM (inactive) | 18.1 µM (inactive) | 12.8 µM (inactive) | 17.5 µM (inactive) |  |
| CC(C)c1ccc(/C=C(\NC(=O)c2ccccc2)c2nc3ccccc3[nH]2)cc1 | 33.7 µM (inactive) | 54.5 µM (inactive) | > 100 µM (inactive) | 36.3 µM (inactive) | 27.2 µM (inactive) | 33.6 µM (inactive) | 20 µM (inactive) | 47.8 µM (inactive) | 23.3 µM (inactive) | 32.2 µM (inactive) | 31.6 µM (inactive) |  | 55 µM (inactive) | 43.1 µM | 75.3 µM (inactive) | 32.4 µM (inactive) |  | 26.8 µM (inactive) | 50.6 µM (inactive) |
| CC(=O)OC1[C@H]2c3cc4c(cc3CN3CCC(=C[C@@H]1O)C23)OCO4 (stereo not given in full) | 33.1 µM (inactive) | > 100 µM (inactive) | > 100 µM (inactive) | 47.6 µM (inactive) | > 100 µM (inactive) | > 100 µM (inactive) | > 100 µM (inactive) | 56.8 µM (inactive) | > 100 µM (inactive) | 44.4 µM (inactive) |  | 43.6 µM (inactive) | > 100 µM (inactive) | > 100 µM |  | > 100 µM (inactive) | > 100 µM (inactive) | > 100 µM (inactive) |  |
| COc1ccc(/C=C/C(=O)c2c(-c3ccccc3)nn(C)c(=O)c2N2CCCCC2)cc1 | 40.1 µM (inactive) | 37.1 µM (inactive) | 21.4 µM (inactive) |  | 14.7 µM (inactive) | 14.9 µM (inactive) | 5.26 µM (inactive) | 18.4 µM (inactive) | 3.94 µM (inactive) |  | 7.31 µM (inactive) | 21.6 µM (inactive) | 20.8 µM (inactive) | 20.7 µM |  | 19.5 µM (inactive) |  | 14 µM (inactive) | 31.2 µM (inactive) |
| Nc1c(-c2nc3ccccc3s2)[n+]([O-])c2ccccc2[n+]1[O-] | 24.6 µM (inactive) | 42.1 µM (inactive) | 37 µM (inactive) | 26.7 µM (inactive) |  | 37 µM (inactive) | 25.8 µM (inactive) | 29.3 µM (inactive) | 32.7 µM (inactive) | 33.2 µM (inactive) | 24.3 µM (inactive) | 23.6 µM (inactive) |  |  | > 100 µM (inactive) | 38.6 µM (inactive) |  | 20 µM (inactive) | 25.8 µM (inactive) |
| CCC1CCc2c(OC)ccc(OCC(=O)O)c2C1=O (stereo not given) | > 100 µM (inactive) | > 100 µM (inactive) | > 100 µM (inactive) | > 100 µM (inactive) | > 100 µM (inactive) |  | > 100 µM (inactive) | > 100 µM (inactive) | > 100 µM (inactive) | > 100 µM (inactive) |  | > 100 µM (inactive) | > 100 µM (inactive) | > 100 µM | > 100 µM (inactive) | > 100 µM (inactive) | > 100 µM (inactive) | > 100 µM (inactive) |  |
| O=C(O)CCC1CCc2cccc3occ1c23 (stereo not given) | > 100 µM (inactive) | > 100 µM (inactive) | > 100 µM (inactive) | > 100 µM (inactive) | > 100 µM (inactive) | > 100 µM (inactive) | > 100 µM (inactive) | > 100 µM (inactive) | > 100 µM (inactive) | > 100 µM (inactive) | > 100 µM (inactive) | > 100 µM (inactive) | > 100 µM (inactive) | > 100 µM | > 100 µM (inactive) | > 100 µM (inactive) |  | > 100 µM (inactive) | > 100 µM (inactive) |
| O=C1CC23CC(=O)CC2(C1)c1ccccc1C3=O (stereo not given) | > 100 µM (inactive) | > 100 µM (inactive) | > 100 µM (inactive) | > 100 µM (inactive) | > 100 µM (inactive) | > 100 µM (inactive) | > 100 µM (inactive) | > 100 µM (inactive) | > 100 µM (inactive) | > 100 µM (inactive) | > 100 µM (inactive) | > 100 µM (inactive) | > 100 µM (inactive) |  | > 100 µM (inactive) | > 100 µM (inactive) |  | > 100 µM (inactive) | > 100 µM (inactive) |
| COc1ccc(-c2nnc(-c3c(C)n(C)n(-c4ccccc4)c3=O)o2)cc1 | > 100 µM (inactive) | > 100 µM (inactive) | > 100 µM (inactive) | > 100 µM (inactive) | > 100 µM (inactive) | > 100 µM (inactive) | > 100 µM (inactive) | > 100 µM (inactive) | > 100 µM (inactive) | > 100 µM (inactive) | > 100 µM (inactive) | > 100 µM (inactive) | > 100 µM (inactive) | > 100 µM |  | > 100 µM (inactive) | > 100 µM (inactive) | > 100 µM (inactive) |  |
| c1ccc(C2C3=C(Nc4ncnn42)c2ccccc2C3)cc1 (stereo not given) | 82.6 µM (inactive) | 35 µM (inactive) | 13.2 µM (inactive) | 83.9 µM (inactive) | 15.6 µM (inactive) | 4.3 µM (inactive) | 29.5 µM (inactive) | 14.9 µM (inactive) | 17.4 µM (inactive) | 4.68 µM (inactive) | 12 µM (inactive) | 8.02 µM (inactive) | 35.3 µM (inactive) | 20.1 µM | 46.8 µM (inactive) | 30.8 µM (inactive) |  | 15 µM (inactive) | 42.3 µM (inactive) |
| C/C(=N/NC(=O)c1ccccc1O)c1ccc(/C(C)=N\NC(=O)c2ccccc2O)c2nc3cc(C)c(C)cc3nc12 | > 100 µM (inactive) | > 100 µM (inactive) | > 100 µM (inactive) | 38.7 µM (inactive) | > 100 µM (inactive) | > 100 µM (inactive) |  | > 100 µM (inactive) | > 100 µM (inactive) | > 100 µM (inactive) | > 100 µM (inactive) | > 100 µM (inactive) | > 100 µM (inactive) | > 100 µM | > 100 µM (inactive) | > 100 µM (inactive) |  | > 100 µM (inactive) |  |
| O=C1c2ccc(O)cc2C(=O)c2ccc(O)cc21 | 36.9 µM (inactive) | 61.8 µM (inactive) | 33.2 µM (inactive) | 29.6 µM (inactive) | 58.1 µM (inactive) | > 100 µM (inactive) | 42.8 µM (inactive) | 78.9 µM (inactive) | 31.6 µM (inactive) | 88.7 µM (inactive) | 39.4 µM (inactive) | > 100 µM (inactive) | 73.5 µM (inactive) | 52.5 µM | > 100 µM (inactive) | > 100 µM (inactive) |  | 59.2 µM (inactive) | 32.9 µM (inactive) |
| Cc1noc(C)c1CCCOC1COc2ccccc2OCCOCCOc2ccccc2OC1 | > 100 µM (inactive) | > 100 µM (inactive) | > 100 µM (inactive) | 65.8 µM (inactive) | > 100 µM (inactive) | > 100 µM (inactive) |  | > 100 µM (inactive) |  | > 100 µM (inactive) |  | > 100 µM (inactive) | > 100 µM (inactive) | > 100 µM | > 100 µM (inactive) | > 100 µM (inactive) |  | > 100 µM (inactive) | > 100 µM (inactive) |
| CCOC(=O)Nn1c(C)cc(C(=O)OC)c1C | > 100 µM (inactive) | > 100 µM (inactive) | > 100 µM (inactive) | > 100 µM (inactive) | > 100 µM (inactive) | > 100 µM (inactive) | > 100 µM (inactive) | > 100 µM (inactive) | > 100 µM (inactive) | > 100 µM (inactive) | > 100 µM (inactive) | > 100 µM (inactive) | > 100 µM (inactive) | > 100 µM | > 100 µM (inactive) | > 100 µM (inactive) |  | > 100 µM (inactive) | > 100 µM (inactive) |
